Results published in ChEMBL document CHEMBL6127055, “Discovery of the therapeutic potential of PPARδ agonist bearing 1,3,4- thiadiazole in inflammatory disorders” (Eur J Med Chem, 2024).

What was measured:
[1] = molecular target: T1, CYP1A2 (Homo sapiens, UniProt P05177); assay: Inhibition of CYP1A2 in human liver microsomes at 10 uM using phenacetin O-deethylase as substrate preincubated for 5 mins followed by NADPH regenerating system addition and measured after 15 mins by LC-MS/MS analysis relative to control; assay type: ADME, Microsome; conditions: probe phenacetin (phenacetin O-deethylase), time 20 min
T1 sequence (P05177 whole entry): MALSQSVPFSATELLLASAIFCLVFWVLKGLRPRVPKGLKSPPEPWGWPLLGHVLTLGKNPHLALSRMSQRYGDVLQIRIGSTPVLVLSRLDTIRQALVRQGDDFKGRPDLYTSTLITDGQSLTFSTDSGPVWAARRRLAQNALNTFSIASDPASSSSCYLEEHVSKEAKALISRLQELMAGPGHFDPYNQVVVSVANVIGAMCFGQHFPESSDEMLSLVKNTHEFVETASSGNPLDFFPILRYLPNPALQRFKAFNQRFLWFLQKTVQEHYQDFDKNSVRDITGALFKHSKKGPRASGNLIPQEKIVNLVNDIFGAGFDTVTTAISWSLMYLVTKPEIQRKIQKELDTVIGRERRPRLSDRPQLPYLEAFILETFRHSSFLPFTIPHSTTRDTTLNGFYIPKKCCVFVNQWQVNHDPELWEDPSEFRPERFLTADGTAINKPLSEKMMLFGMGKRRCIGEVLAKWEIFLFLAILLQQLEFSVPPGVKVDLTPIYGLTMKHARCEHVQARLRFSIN

[2] = molecular target: T2, UGT2B7 (Homo sapiens, UniProt P16662); assay: Inhibition of UGT2B7 (unknown origin) at 10 uM relative to control
T2 sequence (P16662 whole entry): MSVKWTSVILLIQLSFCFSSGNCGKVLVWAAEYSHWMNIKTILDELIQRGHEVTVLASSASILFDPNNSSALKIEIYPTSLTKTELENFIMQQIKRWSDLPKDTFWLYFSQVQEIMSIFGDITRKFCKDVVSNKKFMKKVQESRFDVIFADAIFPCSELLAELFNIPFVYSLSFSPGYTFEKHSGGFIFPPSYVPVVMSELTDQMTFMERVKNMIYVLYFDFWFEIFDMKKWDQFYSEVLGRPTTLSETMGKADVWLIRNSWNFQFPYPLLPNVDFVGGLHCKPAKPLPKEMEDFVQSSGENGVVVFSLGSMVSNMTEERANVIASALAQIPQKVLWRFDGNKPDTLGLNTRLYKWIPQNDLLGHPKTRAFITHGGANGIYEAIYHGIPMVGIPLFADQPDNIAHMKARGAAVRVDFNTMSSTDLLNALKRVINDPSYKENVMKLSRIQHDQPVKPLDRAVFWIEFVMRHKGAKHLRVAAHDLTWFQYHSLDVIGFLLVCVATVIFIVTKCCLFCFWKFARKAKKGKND

## Cc1cc(SCc2nnc(-c3ccc(C(F)(F)F)cc3)s2)ccc1OCC(=O)O
[1]
  inhibition at 0.25 h, 10 µM: 12.4%
[2]
  inhibition at 10 µM: 12.2%
